This is an account of results in patent US20260306460A1, “COMPOSITION FOR REMOVING AND INHIBITING SENESCENT CELLS, AND USES THEREOF” (LIFECEUTIX CO., LTD., priority 2023, published 2026).

Each structure is given as a SMILES string.

For series [1], the system named is obesity-induced aged C57BL6J mice. In words: p16, MMP3, IL6 mRNA in groin fat of obese aged mice given senescent cells killed by test compound, Example 16. It counts as in vivo, mouse. As to conditions: no administration = 100%. From the text:
To obtain preadipocytes, groin fat tissue was collected from an 8-week-old female C57BL6J mouse (KRIBB Laboratory Animal Resource Center). The fat tissue was cut into small pieces and treated with collagenase to decompose the fat tissue, then centrifuged to collect the stromal vascular fraction (SVF) containing preadipocytes. It was washed with a washing medium (HBSS, GenDEPOT; 3.5% Albumin Fraction V, GenDEPOT; 100 U/ml Penicillin & Streptomycin, Invitrogen), mixed again, and extracted by filtering through a 100 μm nylon mesh. The isolated preadipocytes were cultured in the designated medium (DMEM, GenDEPOT; 20% FBS, GenDEPOT; 100 U/ml Penicillin & Streptomycin, Invitrogen). In the same manner as Example 1 of WO2023-085787 A1, cells were treated with doxorubicin at a concentration of 250 nM for 24 hours and cultured for an additional 21 days to induce cell senescence. […] By treating the test compound in the same manner as in Example 13, it was confirmed using an optical microscope that the death of most senescent cells was induced. […] Afterwards, the mouse was sacrificed in the same manner as in Example 7-2 of WO2023-085787 A1, total RNA was extracted from the groin fat tissue, and qRT-PCR was performed and analyzed using the synthesized cDNA. […] The mRNA amount of p16, MMP3, and IL6 without administration of senescent cells whose death was induced by the test compound were calculated as 100%, and the amount of p16, MMP3, and IL6 after administration of the senescent cells whose death was induced by the test compound were compared with them. […] The amount of activity evaluation without administration of senescent cells whose death was induced by the test compound was calculated as 100% and compared it with the amount of activity evaluation after administration of senescent cells whose death was induced by the test compound. […]

For series [2], the system named is proliferating foreskin cells. In words: Survival of proliferating human cells treated with supernatant (secreted fluid) from death-induced cells, Example 13. The conditions noted are these: 3 days; for viability at 30 µM: Homo sapiens, 72 h. It counts as cell-based. The protocol:
(§1) After 3 days, cell viability was measured using CellTiter-Glo Luminescent Cell Viability Assay (Promega) or light microscopy.
After treating cells with the test compound at a high concentration that induces the death of most cells in both non-senescence-induced and senescence-induced cells, the cells were washed three times with PBS to remove the test compound, and replaced with fresh medium and cultured for an additional 3 hours at the time when the compound has entered into the cell but has not yet induced cell death (approximately 1 to 3 hours after compound treatment). During this additional culture, by checking with an optical microscope, etc., the medium supernatants containing secreted fluid from normally proliferating and senescent cells in which cell death was induced were obtained. The obtained medium supernatant was replaced with the medium of normally proliferating and senescent cells, respectively, and cell survival rate was measured after 3 days.

Series [3] relates to non-senescent proliferating human cells. In words: Effect on non-senescent (proliferating) human cells. It counts as cell-based. The conditions noted are these: normally proliferating foreskin cells; 30 μM, 3 days.
Excerpt: Based on the results of Example 10 of WO2023-085787 A1, compounds that induce the death of senescent cells through a mechanism similar to LX-112, unlike existing senescent cell removers such as ABT-263, were screened based on HMGN1. […] The following test compounds were synthesized by and purchased from Medchemexpress, Selleckchem, Cayman, Medkoo, Sigma, Molport, Enzo, TCI, Santa Cruz, REONSIMI, Abcam, Alfa Aesar, APExBIO, BOCSCI, Merck, Thermo Fisher Scientific, R&D Systems, ChemFaces, Aobious, etc. […] In cells in which senescence was not induced by treatment with the control group (DMSO), the amount of HMGN1 above the effective value (sensitivity: 35 pg/ml), analysis limit, was not detected in both untreated and treated conditions with the test compound. On the other hand, in cells where senescence was induced by treatment with doxorubicin, the amount of HMGN1 was measured at 80 to 90 pg/ml. […]
as §1
Using the same method as Example 11, compounds that induce senescent cell death through a mechanism similar to that of LX-112 (ethaselen (1,2-[bis(1,2-benzisoselenazolone-3 (2H)-ketone)]ethane)) were screened based on HMGN1 and others. […] On the other hand, in cells senescent with doxorubicin, an amount of HMGN1 of […] was measured. […]

Setting [4] is: senescent preadipocytes killed by test compound sc.

On to `S=C(N/N=C1\CCCc2cccnc21)N1CCN(c2ccccn2)CC1` [LX-801], for which, in series [1] (setting [4]), the “IL6 mRNA” value is on record as 79.4 (±4.6) % and the “MMP3 mRNA” value is recorded as 81.7 (±2.9) %. Moreover, the “p16 mRNA” value in series [1] (senescent preadipocytes killed by test compound, 5×10^5 cells sc) is given as 79.8 (±3.4) %.

The viability is a read-out of living cells in per cent, often relative to untreated cells. `COC(=O)c1ccc([C@H]2c3[nH]c4ccccc4c3C[C@H](C(=O)OC)N2C(=O)CCl)cc1` [LX-405]: the viability at 30 µM in series [2] (supernatant from death-induced proliferating cells) was found to be 104%; in series [2] (supernatant from death-induced senescent cells) it was 100%. Also, the Survival in series [2] (supernatant from No Cells) is reported as 99.4 (±2.4) %. In series [3], the “induced death of cells” value was “induced the death of most cells”.
